One data set is described as follows: Pharmacokinetics in rats. On the procedure: Each rat was used for collection of blood samples for a maximum of 4 time points. […] The samples were centrifuged for 3 minutes at 2000×g (Eppendorf 5417R centrifuge) to obtain plasma. The plasma samples were stored at −80° C. until LC-MS/MS analysis.
(§1) LC-MS/MS analysis utilized a Waters Acquity UPLC system paired with a Waters Quattro Premier XE tandem quadrupole mass spectrometer operating in ESI positive mode. Prior to injection, K3EDTA plasma samples were processed using a Phenomenex Strata X-A solid phase extraction (SPE) plate. All plasma samples were fortified with N-Maleoyl-β-alanine, mannitol, and acetic acid. Briefly, 50 μL of plasma diluted with 50 μL of internal standard solution and 500 μL 1000:4:1.5 water:ammonium hydroxide:formic acid was mixed and loaded onto a preconditioned Strata X-A SPE plate. Aqueous and organic washes were then applied followed by elution of all analytes with 300:200:7.5 methanol:water:formic acid. The samples were evaporated until approximately 30 μL remained in all wells and 30 μL of 9:1 water:ammonium hydroxide was then added. Finally, the plate was sealed, mixed, and centrifuged prior to transfer to the 2-8° C. Acquity autosampler. Note: During EC1669 analysis, EC0470 was converted to a hydrazone product for bioanalysis. Acetone (500 μL) was added to all samples after the first evaporation step followed by sealing all wells and heating at 50° C. for one hour. After this step, the acetone was evaporated and the extraction completed as described above.
(§2) A 10 μL sample volume was applied to the Waters BEH Shield RP18 100×2.1 mm, […] UPLC column operating at a flow rate of 0.4 mL/min while being maintained at 45° C. A gradient between mobile phase A (1000:4:1.5 water:ammonium hydroxide:formic acid) and mobile phase B (acetonitrile) was used to separate the analytes. The gradient was held at 2% B for the first 30 seconds of the chromatographic run followed by increasing to 20% B by 2.5 minutes. A rapid gradient from 60-90% B is then used to clean the column prior to equilibration at 2% B to complete the 4 minute run cycle.
(§3) For EC1669 MS/MS analysis, EC1669 and its known major metabolites, EC1886 and […], were optimized and monitored. […] In all cases, internal standard response was used to generate response ratios for each analyte. When calibrated, data was regressed using MassLynx 4.1 software. The table below lists transitions for analytes and internal standards monitored for LC-MS/MS bioanalysis.

A further data set in a line: Pharmacokinetics in dogs. Conditions: for half-life: male. On the procedure:
(§4) The samples were centrifuged under refrigeration for at least 10 minutes at 3000 rpm and the plasma generated stored at −20° C. until LC-MS/MS analysis.
as §4, §1, §2, §3

For data set [1], the system named is Rat adjuvant arthritis (AIA). Briefly: Rat adjuvant arthritis (AIA) treatment studies. Type of data set: in vivo. On the procedure:
Female Lewis rats (175-200 g) were purchased from Harlan Sprague Dawley (Indianapolis, Ind.) and allowed to acclimate for 1 week. Generally, rats were fed a folate-deficient diet (Harlan Teklad) for 9-10 days prior to arthritis induction.
Rat adjuvant arthritis (AIA) was induced by intradermal inoculation (at the base of tail) of 0.45-0.46 mg of heat-killed Mycobacteria butyricum (BD Diagnostic Systems, Sparks, Md.) in 100 μL light mineral oil (Sigma). […] During the course of disease development, animals were weighed at least 3 times a week. Paw edema (degree of arthritis) were scored 3 times a week as follows: 0=no edema or arthritis; 1=swelling in one type of joint; 2=swelling in two types of joint; 3=swelling in three types of joint; 4=swelling of the entire paw. A total score for each rat is calculated by adding up the scores for each of the four paws, giving a maximum of 16 per animal.
On the first day of treatment, rats with desired arthritis scores were distributed evenly across the control and treatment groups (n=5). […] All compounds and conjugates were administered subcutaneously (s.c.) starting 9 days after arthritis induction with biweekly (BIW, Mondays and Thursdays) or once-a-week (QW, Mondays) dosing for two consecutive weeks. At the completion of each study (˜4 days after the last treatment), rats were euthanized by CO2 asphyxiation and processed for paw weight (cut at the hairline) and spleen weight.
The rat AIA model resembles many characteristics of human rheumatoid arthritis and it is very aggressive. […] The animals in the AIA control group were left untreated.

The mark [2] stands for this setting: rat plasma, EC1669 dosed SC 500 nmol/kg.
The mark [3] stands for this setting: beagle dog plasma, EC1669 dosed SC 2.4 mg/kg (1073 nmol/kg), N=4.
The mark [4] stands for this setting: female, Lewis, rat, in vivo, sc, 500 nmol/kg.
[5] abbreviates: beagle, dog, in vivo, sc, 2.4 mg/kg.

We go through 5 compounds from patent publication US20180280528A1, “ANTIFOLATE CONJUGATES FOR TREATING INFLAMMATION” (ENDOCYTE, INC., priority 2015, published 2018).

The structures appear in SMILES notation.

As to `NNC(=O)CC[C@H](NC(=O)c1ccc(NCc2cnc3nc(N)nc(N)c3n2)cc1)C(=O)O` [EC0470, aminopterin gamma-hydrazide], in the data set “Pharmacokinetics in rats” (setting [2]), the AUCinf is 0.0659 µM·h; the AUClast came out at 0.0647 µM·h; the concentration peaked (Cmax) at 21.2 nM; the Tmax (as a rule, the time from dosing to the highest level) was found to be 1 h. In the data set “Pharmacokinetics in rats” (setting [2]), this compound had a t1/2 of 1.64 h. Also, in “Pharmacokinetics in dogs” (setting [3]), the AUClast was found to be 0.51 µM·h; the peak concentration (Cmax) – broadly, the peak of the concentration-time curve – came to 66.5 nM; the Tmax worked out at 3.25 h; the t1/2 is recorded as 4.38 h.
As for `Nc1nc(N)c2nc(CNc3ccc(C(=O)N[C@@H](CCC(=O)O)C(=O)O)cc3)cnc2n1` [EC1886, aminopterin, reference compound], in the data set “Pharmacokinetics in rats” (setting [4]), the AUCinf is 0.0956 µM·h, the AUClast worked out at 0.0947 µM·h and the half-life (usually the time in which the quantity being followed falls by half) is 0.997 h. Moreover, the AUC(0-inf) – broadly, the area under the concentration-time curve extrapolated to infinity – in the data set “Pharmacokinetics in rats” (female, Lewis, rat, in vivo, sc, 500 nmol/kg, AUCinf) was 0.107 µM·h. In addition, the AUClast in the data set “Pharmacokinetics in dogs” (beagle dog plasma, EC2319 dosed SC 2.43 mg/kg (1074 nmol/kg), N=2) was determined as 0.157 µM·h. Moreover, in the data set “Pharmacokinetics in dogs” (setting [5]), the AUC(0-t) (commonly the area under the concentration-time curve up to a stated or last time point) amounted to 0.0417 µM·h, the highest level (Cmax) was 9.41 nM and the Tmax is 3.5 h. Also, in “Pharmacokinetics in dogs” (dogs, subcutaneous dosing), the “AUClast of aminopterin released, higher from EC2319 than from EC1669” value is on record as approximately 3.8 fold and the “Cmax of aminopterin released, higher from EC2319 than from EC1669” value is given as approximately 2.6 fold. In “Pharmacokinetics in dogs” (beagle, dog, in vivo, iv, 1 mg/kg), this compound had a half-life of 2 h. Moreover, in the data set “Pharmacokinetics in dogs” (beagle, dog, in vivo, sc, 2.43 mg/kg), the half-life was 2.74 h.
With `N=c1[nH]c(N)nc2ncc(CNc3ccc(C(=O)N[C@@H](CCC(=O)NCCSSC[C@@H](NC(=O)[C@H](CCC(=O)NC[C@H](O)[C@@H](O)[C@H](O)[C@H](O)CO)NC(=O)[C@@H](CCC(=O)O)NC(=O)[C@H](CCC(=O)NC[C@H](O)[C@@H](O)[C@H](O)[C@H](O)CO)NC(=O)[C@@H](CCC(=O)O)NC(=O)[C@H](CCC(=O)NC[C@H](O)[C@@H](O)[C@H](O)[C@H](O)CO)NC(=O)CC[C@H](NC(=O)c4ccc(NCc5cnc6nc(N)[nH]c(=O)c6n5)cc4)C(=O)O)C(=O)O)C(=O)O)cc3)nc12` [EC2285], in data set [1] (Study 2, 500 nmol/kg BIW plus 500-fold molar excess EC0923 (250 μmol/kg)), the “anti-arthritic activity with concurrent EC0923 (arthritis score, paw weight, spleen weight, body weight)” value was “fully blocked by EC0923”.
Regarding `COC(=O)[C@H](CCCCNC(=O)[C@H](CCC(=O)NC[C@H](O)[C@@H](O)[C@H](O)[C@H](O)CO)NC(=O)[C@H](CCC(=O)O)NC(=O)[C@H](CCC(=O)NC[C@H](O)[C@@H](O)[C@H](O)[C@H](O)CO)NC(=O)[C@H](CCC(=O)O)NC(=O)[C@H](CCC(=O)NC[C@H](O)[C@@H](O)[C@H](O)[C@H](O)CO)NC(=O)CC[C@H](NC(=O)c1ccc(NCc2cnc3nc(N)[nH]c(=O)c3n2)cc1)C(=O)O)NC(=O)CC[C@H](NC(=O)c1ccc(NCc2cnc3nc(N)[nH]c(=N)c3n2)cc1)C(=O)O` [EC2413], in data set [1] (Study 3, 500 nmol/kg, BIW), the anti-arthritic activity entry was “significant anti-arthritic activity” and the body weight result is listed as “maintained a good body weight”. The “decreasing arthritis score, paw weight, and spleen weight” value in data set [1] (Study 3, 500 nmol/kg, BIW, two consecutive weeks) was “inferior to both EC2319 and EC1669”. Moreover, the “effectiveness in all parameters assessed” value in data set [1] (Study 3, 1000 nmol/kg (QW)) is “less effective than EC2413 dosed at 500 nmol/kg (BIW)”.
On to `COC(=O)[C@H](CSC1CC(=O)N(CCC(=O)O)C1=O)NC(=O)CC[C@H](NC(=O)c1ccc(NCc2cnc3nc(N)[nH]c(=N)c3n2)cc1)C(=O)O` (stereo partly shown) [EC2496], for which the half-life in the data set “Pharmacokinetics in dogs” (beagle, dog, plasma, iv, 1 mg/kg) is 1.28 h; in the data set “Pharmacokinetics in dogs” (beagle, dog, plasma, sc, 2.43 mg/kg), 2.14 h.
